Some test systems named below: RPMI-8226; SF-295; A549; NCI-H23; MCF7; HL-60; PC-3; ACHN; M14; OVCAR-8; NCI-H460; Malme-3M; Hs-578T; SNB-19; OVCAR-4; OVCAR-3; DLD-1; U-251; IGROV-1; KM12.
Holding throughout (assay): NCI tumour cell line growth inhibition, 48 h

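These data come from cells grown in 96-well plates and exposed to compound for 48 hours at five concentrations. GI50 is the concentration that inhibits growth by half.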 Active and inactive are the calls of the source. No stated cut-off is given here; in the data, active = GI50 up to about 1.1 µM and inactive = higher. Where only a bound is given, the exact number is not on record here.

For `COc1ccc(/C=C\c2cc(OC)c(OC)c(OC)c2)cc1OC(=O)NCCN(C)C`, the GI50 in the assay on RPMI-8226 was 0.00014 µM (active); in the assay with SF-295, 0.000119 µM (active); in the assay on A549, 0.00187 µM (active); in the assay on NCI-H23, 0.000121 µM (active); with MCF7, 0.00334 µM (active); with HL-60 it was < 0.0001 µM (active). Also, the GI50 in the assay on PC-3 was 0.000152 µM (active); in the assay with ACHN, 0.000659 µM (active); in the assay on M14 it was 0.000156 µM (active); in the assay with OVCAR-8 it was 0.000143 µM (active); with NCI-H460, 0.000125 µM (active); in the assay on Malme-3M, 0.00284 µM (active). Also, the GI50 was 0.000137 µM (active) in the assay with Hs-578T; 0.000178 µM (active) in the assay with SNB-19; 0.00144 µM (active) with OVCAR-4; 0.000107 µM (active) in the assay with OVCAR-3; < 0.0001 µM (active) in the assay on DLD-1; 0.000125 µM (active) in the assay with U-251.

As for `Cc1cn(C2CC(O)C(CO)O2)c(=O)[nH]c1=O` (centres undefined), the GI50 was 2050 µM (inactive) in the assay with RPMI-8226; 2290 µM (inactive) in the assay with SF-295; 689 µM (inactive) in the assay with A549; > 4900 µM (inactive) with IGROV-1; 1020 µM (inactive) in the assay on NCI-H23; 325 µM (inactive) in the assay on MCF7. In addition, the GI50 was > 4760 µM (inactive) in the assay with HL-60; > 5000 µM (inactive) in the assay on PC-3; 1840 µM (inactive) in the assay on ACHN; 1850 µM (inactive) with M14; > 4930 µM (inactive) with KM12; 1590 µM (inactive) in the assay on OVCAR-8. The GI50 with NCI-H460 was 655 µM (inactive); with Malme-3M, 2410 µM (inactive); in the assay with Hs-578T it was 3900 µM (inactive); with SNB-19, 1730 µM (inactive); with OVCAR-4 it was > 3890 µM (inactive); with OVCAR-3, 1490 µM (inactive). In addition, the GI50 with DLD-1 was 2700 µM (inactive); in the assay with U-251, 1530 µM (inactive).

With `COc1cc(NCc2ccc3nc(N)nc(N)c3c2C)cc(OC)c1OC`, the GI50 in the assay on RPMI-8226 was 0.0562 µM (active); in the assay with SF-295, 0.0308 µM (active); in the assay on A549 it was 0.0407 µM (active); in the assay on IGROV-1, 0.0316 µM (active); in the assay on NCI-H23 it was 0.0453 µM (active); in the assay with MCF7, 0.0308 µM (active). Besides, the GI50 with HL-60 is 0.043 µM (active); in the assay with PC-3, 0.000383 µM (active); in the assay with ACHN, 0.000395 µM (active); with M14, 0.00024 µM (active); in the assay on KM12, 0.0478 µM (active); in the assay on OVCAR-8 it was 0.0262 µM (active). Also, the GI50 was 0.025 µM (active) in the assay on NCI-H460; 1.55 µM (inactive) with Malme-3M; 0.0993 µM (active) with Hs-578T; 0.0597 µM (active) with SNB-19; 22.4 µM (inactive) with OVCAR-4; 0.288 µM (active) with OVCAR-3. Further, the GI50 is 0.0253 µM (active) in the assay with DLD-1 and 0.0379 µM (active) in the assay with U-251.

On to `CCCCCCCCCCCCC(CC)CCCCC(=O)O` (centres undefined), for which the GI50 with RPMI-8226 is > 56.4 µM (inactive); in the assay on SF-295 it was > 100 µM (inactive); in the assay on A549, > 100 µM (inactive); in the assay with IGROV-1, > 100 µM (inactive); in the assay on NCI-H23, > 78.7 µM (inactive); in the assay with HL-60, > 63.1 µM (inactive). The GI50 with ACHN was > 100 µM (inactive); in the assay on M14, > 100 µM (inactive); in the assay with KM12 it was > 100 µM (inactive); with OVCAR-8 it was > 100 µM (inactive); in the assay with NCI-H460, > 62.4 µM (inactive); in the assay on Malme-3M, > 100 µM (inactive). For the same compound, the GI50 with SNB-19 is > 100 µM (inactive); in the assay on OVCAR-4 it was > 100 µM (inactive); with OVCAR-3, > 100 µM (inactive); in the assay on DLD-1, > 100 µM (inactive); in the assay on U-251, > 47.6 µM (inactive).

For `CCCCCCCCCC[S+]([O-])CC(CO)NC(=O)/C=C/c1c(C)nc(O)nc1O` (centres undefined), the GI50 in the assay on RPMI-8226 was 1.04 µM (active); with A549 it was 2.22 µM (inactive); in the assay with IGROV-1, 0.959 µM (active); with NCI-H23 it was 0.504 µM (active); in the assay on MCF7, 0.252 µM (active); with HL-60, 0.815 µM (active). For the same compound, the GI50 with PC-3 is 1.43 µM (inactive); with ACHN, 13.4 µM (inactive); in the assay with M14, 11 µM (inactive); with KM12, 0.202 µM (active); with Malme-3M it was 0.47 µM (active); in the assay on OVCAR-4, 0.199 µM (active). Besides, the figures for the GI50 in the assay with DLD-1 and in the assay with U-251 were 0.476 µM (active) and 0.132 µM (active), respectively.

Take `COc1cc2c(c(OC)c1OC)-c1ccc(SC)c(=O)cc1[C@@H](NCc1cccc(C#N)c1)CC2`: the GI50 in the assay with RPMI-8226 was 0.0345 µM (active); in the assay on SF-295, 0.0207 µM (active); with A549, 0.0345 µM (active); in the assay with IGROV-1, 0.057 µM (active); in the assay on NCI-H23, 0.0179 µM (active); with HL-60, 0.0419 µM (active). Besides, the GI50 with ACHN is 0.047 µM (active); with M14, 0.0188 µM (active); in the assay with KM12, 0.00528 µM (active); in the assay with OVCAR-8, 0.0222 µM (active); in the assay on NCI-H460, 0.0268 µM (active); in the assay on Malme-3M, 0.0232 µM (active). For the same compound, the GI50 in the assay with SNB-19 was 0.045 µM (active); with OVCAR-4, 0.0075 µM (active); in the assay with OVCAR-3, 0.0168 µM (active); in the assay on DLD-1 it was 0.0245 µM (active); in the assay on U-251, 0.0178 µM (active).

For the compound `COc1ccc(CNc2cc(OC)c(OC)c(OC)c2)cc1`, the GI50 in the assay with RPMI-8226 was 4.18 µM (inactive); in the assay on SF-295, 4.18 µM (inactive); in the assay with A549, 6.11 µM (inactive); in the assay with IGROV-1, 5.89 µM (inactive); with NCI-H23, 6.08 µM (inactive); in the assay on HL-60, 2.67 µM (inactive). Moreover, the GI50 is 12.1 µM (inactive) with ACHN; 6.82 µM (inactive) in the assay on M14; 2.25 µM (inactive) in the assay on KM12; 8.99 µM (inactive) in the assay on OVCAR-8; 3.47 µM (inactive) in the assay with NCI-H460; 7.03 µM (inactive) with Malme-3M. Also, the GI50 was 6.85 µM (inactive) with SNB-19; 12.4 µM (inactive) in the assay with OVCAR-4; 3.14 µM (inactive) in the assay on OVCAR-3; 5.66 µM (inactive) with DLD-1; 3.78 µM (inactive) with U-251.

Take `COc1ccc(C(=C[N+](=O)[O-])c2ccc(OC)cc2)cc1`: the GI50 was 3.84 µM (inactive) in the assay on RPMI-8226; 5.96 µM (inactive) with SF-295; 13.6 µM (inactive) with A549; 9.42 µM (inactive) in the assay on IGROV-1; 12.7 µM (inactive) in the assay on NCI-H23; 5.19 µM (inactive) in the assay on HL-60. Moreover, the GI50 in the assay on ACHN was 30.1 µM (inactive); in the assay with M14, 11.9 µM (inactive); with KM12, 4.5 µM (inactive); in the assay on OVCAR-8, 13 µM (inactive); with NCI-H460, 10.7 µM (inactive); in the assay with Malme-3M, 13.3 µM (inactive). Further, the GI50 in the assay on SNB-19 was 22.2 µM (inactive); in the assay with OVCAR-4, 34.4 µM (inactive); in the assay on OVCAR-3 it was 14.1 µM (inactive); in the assay on DLD-1, 16.7 µM (inactive); in the assay with U-251, 11.3 µM (inactive).

With `O=C(Nc1ccc(Sc2ccc(/N=N/c3c(O)c(S(=O)(=O)O)cc4cc(S(=O)(=O)O)ccc34)cc2)cc1)c1ccc(/N=N/c2c(O)ccc3c(S(=O)(=O)O)cc(S(=O)(=O)O)cc23)cc1`, the GI50 with RPMI-8226 was 10.4 µM (inactive); in the assay on SF-295 it was 62.7 µM (inactive); in the assay with A549, 28.4 µM (inactive); with IGROV-1, 32.7 µM (inactive); with NCI-H23, 19 µM (inactive); with HL-60, 10.3 µM (inactive). In addition, the GI50 in the assay on ACHN is 29.4 µM (inactive); in the assay with M14, 21.7 µM (inactive); in the assay on KM12, 39.9 µM (inactive); in the assay with OVCAR-8, 20.8 µM (inactive); with NCI-H460 it was 28.1 µM (inactive); in the assay with Malme-3M, 24.9 µM (inactive). Besides, the GI50 is 41.1 µM (inactive) in the assay with SNB-19; 33.8 µM (inactive) with OVCAR-4; 19.8 µM (inactive) with OVCAR-3; 37.7 µM (inactive) in the assay on DLD-1; 41.2 µM (inactive) in the assay on U-251.

Take `CCN(CC)CCC(=O)N1C/C(=C/c2ccccc2)C(=O)/C(=C\c2ccccc2)C1`: the GI50 with RPMI-8226 is 0.114 µM (active); in the assay on SF-295, 2.11 µM (inactive); in the assay with A549, 4.76 µM (inactive); in the assay with IGROV-1, 3.03 µM (inactive); in the assay with NCI-H23, 1.42 µM (inactive); with MCF7, 0.372 µM (active). Moreover, the GI50 in the assay on HL-60 was 0.383 µM (active); with PC-3 it was 1.06 µM (active); in the assay on ACHN, 2.78 µM (inactive); in the assay on M14 it was 1.52 µM (inactive); in the assay on KM12, 0.541 µM (active); with OVCAR-8, 1.35 µM (inactive). The GI50 in the assay with NCI-H460 was 3.24 µM (inactive); in the assay with Malme-3M, 2.58 µM (inactive); with Hs-578T, < 0.01 µM (active); in the assay on SNB-19 it was 2.2 µM (inactive); in the assay on OVCAR-4, 2.17 µM (inactive); in the assay with OVCAR-3, 3.06 µM (inactive). In addition, the GI50 in the assay on DLD-1 was 1.29 µM (inactive); in the assay with U-251 it was 0.762 µM (active).

Consider `COC(=O)C1CCC(C)CC1=O` (centres undefined), for which the GI50 in the assay with RPMI-8226, in the assay with SF-295, in the assay with A549, in the assay on IGROV-1, in the assay with NCI-H23 and in the assay on HL-60 was > 100 µM (inactive) in each case. Besides, the GI50 with ACHN, with M14, in the assay on KM12, in the assay with OVCAR-8, in the assay on NCI-H460 and in the assay on Malme-3M was > 100 µM (inactive) throughout. Besides, the GI50 in the assay on SNB-19, in the assay on OVCAR-4, in the assay on OVCAR-3, in the assay on DLD-1 and in the assay on U-251 was > 100 µM (inactive) throughout.
